20 compounds from article PMC11484942, “Rumicidins are a family of mammalian host-defense peptides plugging the 70S ribosome exit tunnel” (Nature Communications, 2024) can be followed below.

In one data set the test system is E. coli 1057 WT. Kind of data set: microbe, parasite or virus in culture. Particulars: MHB + 0.9% NaCl. It counts as cell-based, Escherichia coli.
The test system of data set [1] is E. coli 1057 R2 (rpoS^Q3stop, macB^N470D). As to conditions: MHB + 0.9% NaCl. On the procedure: Minimum inhibitory concentrations (MIC) were determined by broth microdilution assay based on Clinical and Laboratory Standards Institute (CLSI) guidelines using BSA in the growth medium to minimize AMP nonspecific adsorption. Bacterial test cultures were grown in the Mueller-Hinton broth (MHB, Sigma) at 37 °C to mid-log phase and then diluted with the 2× MH medium supplemented with 1.8% NaCl (or without salt) so that to reach a final cell concentration of 10^6 CFU/mL. 50 µL of the obtained bacterial suspension were added to aliquots of 50 µL of the peptide solutions serially diluted with sterilized 0.1% bovine serum albumin (BSA) in 96-well flat-bottom polystyrene microplates (Eppendorf #0030730011). […] To verify MIC values, the respiratory activity of the bacteria was determined. Briefly, 5 µL of 0.5 mg/mL resazurin (Sigma) was added to the wells after 24 h (or after 48 h for M. smegmatis) of incubation, and the plate was incubated for additional 3 h. In some cases, MICs were determined in the Lysogeny Broth (LB) or Middlebrook 7H9 medium. The reduction of resazurin to resorufin was recorded. […] The results were expressed as the median values determined based on at least three independent experiments performed in triplicate.
Resistance induction experiments were performed using the previously described method. This approach allows for monitoring MIC values after each transfer. Briefly, on the first day, the overnight culture of the wild-type bacteria was diluted with the 2× MHB supplemented with 1.8% NaCl (or without salt) to reach a final cell concentration of 10^6 CFU/mL. 50 µL of the obtained bacterial suspension were added to aliquots of 50 µL of the peptide solutions serially diluted with the sterilized 0.1% BSA in 96-well flat-bottom polystyrene microplates. After incubation for 20 ± 2 h at 37 °C and 950 rpm, MICs were determined as described above. For each subsequent daily transfer, 2–4 μL of the inoculum taken from the first well containing a sub-inhibitory drug concentration was diluted with 2 mL of the fresh 2× MHB supplemented with 1.8% NaCl (or without salt). […] Multiple repeated passages in the presence of antimicrobial agents were performed for each bacterial strain during the experiment. Bacteria that grew at the highest concentrations of AMPs on the final day were passaged further 3 times on drug-free agar plates before determining the final MIC value.

Data set [2] relates to HEK293T (transformed embryonic kidney cells). As to the kind of experiment: MTT cytotoxicity. The class given is cell-based, human. As to conditions: mean. As to the method:
(§1) Hemolytic activity of the peptides was tested against the fresh suspension of human red blood cells (hRBC) using the hemoglobin release assay as described previously. Two experiments were performed with the hRBC from blood samples collected from healthy donors by certified medical personnel upon informed written consent. All procedures were approved by the Ethics Committee of the Institute of Experimental Medicine (protocol 1/20 of 2/27/2020) and comply with the ethical principles of the Declaration of Helsinki. The quantitative data were represented as average means with standard deviations. The colorimetric 3-(4,5-dimethylthiazol-2-yl)-2,5-diphenyltetrazolium bromide (MTT) dye reduction assay was used to determine cytotoxicity of the peptides against human keratinocyte cell line (HaCaT) and transformed human embryonic kidney cells (HEK293T). Both cell lines were purchased from American Type Culture Collection (ATCC). 10^4 cells per well in Dulbecco’s modified Eagle’s medium (DMEM/F12) supplemented with 10% fetal bovine serum (FBS, Invitrogen) were placed into 96-well plates and then cultured in the CO2-incubator (5% CO2, 37 °C). After the media were removed, the peptides were dissolved in 100 µL of the same medium and added to cell cultures at different final concentrations. 20 h later, 20 μL of MTT (5 mg/mL, Sigma) was added to each well, and the plates were incubated for 4 h at 37 °C. Then, the media were discarded and 100 µL DMSO-isopropanol mixture at a ratio of 1:1 (v/v) was added to each well to dissolve the crystallized formazan. The absorbance at 570 nm was measured by a microplate reader AF2200 (Eppendorf). An optical density in the wells containing cells cultured without the peptides was assumed to represent 100% cell viability. Two independent experiments were performed for each peptide.

The subject of another data set is HaCaT (keratinocytes). As to the kind of experiment: MTT cytotoxicity. As to conditions: mean. It counts as cell-based, human. On the procedure:
as §1

The next data set has as its system E. coli BW25113. As to the kind of experiment: MIC broth microdilution. It counts as cell-based, Escherichia coli. As to conditions: for Minimum inhibitory concentration MHB + 0.9% NaCl: Mueller-Hinton broth + 0.9% NaCl; for Minimum inhibitory concentration MHB + 0.9% NaCl / Minimum inhibitory concentration MHB: 24 h 37 °C, median of ≥3 experiments; for Minimum inhibitory concentration MHB: Mueller-Hinton broth without salt; for fold change of MIC vs wild-type rumicidin-1: N-terminal shortening. On the procedure:
The reduction of resazurin to resorufin was recorded.
(In general: Dilution methods test growth across graded concentrations, often in twofold steps.)

Data set [3] concerns E. coli BL21 (DE3) Star cell extract. As to the kind of experiment: Cell-free protein synthesis (coupled transcription/translation) of EGFP. It counts as biochemical, Escherichia coli. Particulars: minimum concentration that provides >90% inhibition of the EGFP synthesis in the CFPS system. As to the method: To investigate the effects of AMPs and antibiotics on the coupled transcription/translation process, the test compounds were added to a cell-free protein synthesis (CFPS) reaction mix with a plasmid encoding enhanced green fluorescent protein (EGFP) variant (F64L, S65T, Q80R, F99S, M153T, and V163A) under control of the T7 promoter. The cell lysate was prepared using the E. coli BL21 Star (DE3) overexpressed T7 RNA polymerase as described previously. The reaction mix consisted of the following components: 1.2 mM ATP, 0.8 mM UTP, 0.8 mM GTP, 0.8 mM CTP, 2 mM of each of 20 proteinogenic amino acids, 1.5 mM spermidine, 1 mM putrescine dihydrochloride, 0.06647 mM calcium folinate, […] tRNA from the E. coli MRE 600 strain, 0.33 mM NAD, 120 mM HEPES-KOH (pH 8.0), 10 mM ammonium glutamate, 175 mM potassium glutamate, 60 mM glucose, 15 mM magnesium glutamate, 2% PEG 8000, 25% E. coli BL21 Star (DE3) cell lysate, 1 ng/ml plasmid DNA. The reaction volume was 50 µL. The peptides were dissolved in PBS with the addition of 0.1% BSA. Erythromycin was used in the positive control reactions. The fluorescence of the sample without inhibitor was set as the 100% value. The reaction proceeded for 2 h in 96-well v-bottom black polystyrene microplates (Eppendorf #0030601904) in a plate shaker (30 °C, 1000 rpm). The fluorescence of the synthesized EGFP was measured with the microplate reader AF2200 (λEx = 488 nm, λEm = 510 nm; Eppendorf). The experimental data were obtained from at least two independent experiments performed in triplicate. Non-linear regression curves were generated using GraphPad Prism v.8.0.1 (GraphPad Software Inc.).

Ends that are not written are not given here.

With `CN[C@@H]1[C@H](O)[C@H](NC)[C@H]2O[C@@]3(O)C(=O)C[C@@H](C)O[C@H]3O[C@@H]2[C@H]1O` [Spectinomycin], the MIC in the data set with E. coli 1057 WT (Escherichia coli, 1057WT, 24 h) came out at 64 µM.
Regarding `CN(C)[C@@H]1C(O)=C(C(N)=O)C(=O)[C@@]2(O)C(O)=C3C(=O)c4c(O)cccc4[C@@](C)(O)[C@H]3C[C@@H]12` [Tetracycline], the MIC with E. coli 1057 WT (Escherichia coli, 1057WT, 24 h) worked out at 4 µM.
On to `CC[C@H](C)[C@H](NC(=O)CN)C(=O)NCC(=O)N[C@@H](C)C(=O)N[C@H](C(=O)N[C@@H](CC(C)C)C(=O)N[C@@H](CCCCN)C(=O)N[C@H](C(=O)N[C@@H](CC(C)C)C(=O)N[C@H](C(=O)N[C@H](C(=O)NCC(=O)N[C@@H](CC(C)C)C(=O)N1CCC[C@H]1C(=O)N[C@@H](C)C(=O)N[C@@H](CC(C)C)C(=O)N[C@H](C(=O)N[C@@H](CO)C(=O)N[C@@H](Cc1c[nH]c2ccccc12)C(=O)N[C@H](C(=O)N[C@@H](CCCCN)C(=O)N[C@@H](CCCNC(=N)N)C(=O)N[C@@H](CCCCN)C(=O)N[C@@H](CCCNC(=N)N)C(=O)N[C@@H](CCC(N)=O)C(=O)N[C@@H](CCC(N)=O)C(N)=O)[C@@H](C)CC)[C@@H](C)CC)[C@@H](C)O)[C@@H](C)O)C(C)C)C(C)C` [Melittin], for which the MIC with E. coli 1057 WT was 8 µM; in data set [1], 16 µM. In addition, the HEK293T cell viability is 101.366% in data set [2] (0.25 µM); 102.416% in data set [2] (0.5 µM); 98.73% in data set [2] (1 µM); 27.546% in data set [2] (2 µM); 9.889% in data set [2] (4 µM); 9.248% in data set [2] (8 µM). Further, in data set [2] (16 µM), the HEK293T cell viability worked out at 9.026%. The HaCaT cell viability in the data set on HaCaT (keratinocytes) (0.25 µM) is listed as 102.196%; in the data set on HaCaT (keratinocytes) (0.5 µM), 104.998%; in the data set on HaCaT (keratinocytes) (1 µM) it was 106.041%; with HaCaT (keratinocytes) (2 µM), 106.484%; in the data set with HaCaT (keratinocytes) (4 µM), 67.714%; in the data set on HaCaT (keratinocytes) (8 µM), 4.039%. Also, the HaCaT cell viability in the data set with HaCaT (keratinocytes) (16 µM) worked out at 2.958%; with HaCaT (keratinocytes) (32 µM), 4.046%.
Gentamycin: the MIC (with E. coli 1057 WT; in data set [1]) was 2 µM in each case.
Consider RARRPRPPKPRPPHRPRPRPRP [Rum-1[1-22]], for which, in the data set with E. coli BW25113, the “Minimum inhibitory concentration MHB + 0.9% NaCl” value worked out at 256 µM and the “Minimum inhibitory concentration MHB” value was 16 µM.
Regarding `CO/N=C(\C(=O)N[C@@H]1C(=O)N2C(C(=O)O)=C(CSc3nc(=O)c(=O)[nH]n3C)CS[C@H]12)c1csc(N)n1` [Ceftriaxone], the MIC in the data set with E. coli 1057 WT (Escherichia coli, 1057WT, 24 h) was determined as 128 µM.
Still for that read-out and setting: then `CO[C@H]1/C=C/O[C@@]2(C)Oc3c(C)c(O)c4c(O)c(c(/C=N/N5CCN(C)CC5)c(O)c4c3C2=O)NC(=O)/C(C)=C\C=C\[C@H](C)[C@H](O)[C@@H](C)[C@@H](O)[C@@H](C)[C@H](OC(C)=O)[C@@H]1C` [Rifampicin], with 32 µM.
RPRPRPRPWFPPRFP [Rum-1[15-29]] came in with a Protein synthesis inhibition in data set [3] of 256 µM. For the same compound, in the data set on E. coli BW25113, the “Minimum inhibitory concentration MHB + 0.9% NaCl” value is > 256 µM and the “Minimum inhibitory concentration MHB” value worked out at 32 µM.
PHRPRPRPRPWFPPRFP [Rum-1[13-29]]: in data set [3], the Protein synthesis inhibition is 64 µM. For the same compound, in the data set on E. coli BW25113, the “Minimum inhibitory concentration MHB + 0.9% NaCl” value was > 256 µM and the “Minimum inhibitory concentration MHB” value came to 32 µM.
In the case of `NC[C@H]1O[C@H](O[C@H]2[C@H](O)[C@@H](O[C@H]3O[C@H](CO)[C@@H](O)[C@H](N)[C@H]3O)[C@H](N)C[C@@H]2N)[C@H](O)[C@@H](O)[C@@H]1O` [Kanamycin], the MIC (in the data set with E. coli 1057 WT; in data set [1]) was 8 µM each time.
As to `CC1(C)S[C@@H]2[C@H](NC(=O)[C@H](N)c3ccccc3)C(=O)N2[C@H]1C(=O)O` [Ampicillin], the MIC in the data set with E. coli 1057 WT (Escherichia coli, 1057WT, 24 h) is > 128 µM.
For “RGGRLCYCRRRFCVCVGR (Protegrin-1; UniProt P32194 131-148, looked up)”, the MIC (in the data set with E. coli 1057 WT; in data set [1]) was 0.25 µM each time.
For “RRLRPRRPRLPRPRPRPRPRPR [mini-ChBac7.5Nα]”, the MIC in data set [1] was > 32 µM.
Turning to `O=C(N[C@H](CO)[C@H](O)c1ccc([N+](=O)[O-])cc1)C(Cl)Cl` [Chloramphenicol], the MIC in the data set with E. coli 1057 WT (Escherichia coli, 1057WT, 24 h) amounted to 16 µM.
RARRPRPPKPRPPHRP [Rum-1[1-16]]: in the data set with E. coli BW25113, the “Minimum inhibitory concentration MHB + 0.9% NaCl” value is > 256 µM and the “Minimum inhibitory concentration MHB” value stood at 256 µM.
The compound RPPHRPRPRPRPWFPPRFP [Rum-1[11-29]] returned a Protein synthesis inhibition in data set [3] of 32 µM. Further, in the data set with E. coli BW25113, the “Minimum inhibitory concentration MHB + 0.9% NaCl” value came out at 64 µM, the “Minimum inhibitory concentration MHB” value worked out at 8 µM and the “fold change of MIC vs wild-type rumicidin-1” value (“fold change of MIC” for short) is ≥ 4 fold.
RPPKPRPPHRPRPRPRPWFPPRFP [Rum-1[6-29]] yielded a Protein synthesis inhibition in data set [3] of 4 µM. Besides, in the data set with E. coli BW25113, the “Minimum inhibitory concentration MHB + 0.9% NaCl” value was 16 to 32 µM, the “Minimum inhibitory concentration MHB” value is 4 µM and the “fold change of MIC” value is on record as “two-fold”.
In data set [3], “RPRPPKPRPPHRPRPRPRPWFPPRFP [Rum-1[4-29]]” came in with a Protein synthesis inhibition of 4 µM. Besides, in the data set with E. coli BW25113, the “Minimum inhibitory concentration MHB + 0.9% NaCl” value is 16 µM, the “Minimum inhibitory concentration MHB” value was 4 µM and the “fold change of MIC” value was “two-fold”.
For the compound `CCC[C@@H]1C[C@@H](C(=O)N[C@@H]([C@H]2O[C@H](SC)[C@H](O)[C@@H](O)[C@H]2O)[C@H](C)Cl)N(C)C1` [Clindamycin], the MIC with E. coli 1057 WT (Escherichia coli, 1057WT, 24 h) came out at 128 µM.
On to `[H]/N=C(/N)N[C@H]1[C@H](O)[C@@H](O)[C@H](O[C@@H]2O[C@@H](C)[C@](O)(C=O)[C@H]2O[C@@H]2O[C@@H](CO)[C@H](O)[C@@H](O)[C@@H]2NC)[C@@H](N/C(N)=N\[H])[C@@H]1O` [Streptomycin], for which the MIC in the data set on E. coli 1057 WT (Escherichia coli, 1057WT, 24 h) amounted to 4 µM.
